Data as given in US20240059669A1, “COCRYSTAL OF A CDK INHIBITOR” (AURIGENE ONCOLOGY LIMITED, priority 2020, published 2024).
Counter-ions that a name gives are not always drawn.

Key:
Format in all cases: physicochemical
[1] = Variable temperature X-ray diffraction (VT-XRD) physical stability; conditions: 25° C., 40° C. and 60° C.; isothermal hold of 60 min
Text: An Anton Paar temperature-humidity chamber (THC) was used to collect in situ XRPD patterns as a function of humidity. The humidity was generated with an RH-200 manufactured by VTI Inc. and carried by a flow of nitrogen gas. The humidity and temperature was monitored by a HygroClip sensor manufactured by Rotronic located next to the specimen inside the THC. XRPD patterns were collected with a PANalytical X'Pert PRO MPD diffractometer in symmetric Bragg-Brentano reflection geometry. Isothermal hold of 60 min given at specified temperature. Heating rate was kept at 10° C./min. Approximately 200 mg sample used for VT-XRD analysis. Cu Kα radiation was produced using a long, fine-focus source operated at 45 kV and 40 mA. The incident beam was conditioned using a nickel filter, a 0.02-rad Soller slit, a 11.6-mm fixed incident beam mask, a fixed 0.76-mm ½° antiscatter slit, and a fixed 0.38-mm ¼° divergence slit. The diffracted beam was conditioned using a 5-mm antiscatter slit, a 0.04-rad Soller slit. The diffraction patterns were collected using a scanning position-sensitive detector (X'Celerator) located 240 mm from the sample. Data were collected and analyzed using Data Collector software v. 5.5.
VT-XRD analysis confirmed that compound of formula (I)-fumaric acid cocrystal remained stable and no solid form transformation/phase change occurred even at higher temperature conditions. […]

[2] = Equilibrium solubility in various media (shaker water bath, HPLC analysis); conditions: for Solubility (mg/ml) ± SD: 24 hrs
Description: Equilibrium solubility of compound of formula (I) free base and compound of formula (I) fumarate were measured in various medium. Excess quantities of compound of formula (I) and compound of formula (I) fumarate were added to glass vials containing different medium. These vials were kept for shaking in shaker water bath at appropriate temperature (25° C. for water and 37° C. for buffers) at 200 rpm. The obtained preparations were filtered and analysed by means of HPLC.

[3] = Variable humidity X-ray diffraction (VH-XRD) physical stability; conditions: 40% RH to 85% RH sorption then desorption to 40% RH, 1 hr at each RH level
Description: An Anton Paar TTK 450 stage was used to collect in situ XRPD patterns as a function of temperature. The sample was heated with a resistance heater located directly under the sample holder, and the temperature was monitored with a platinum-100 resistance sensor located in the specimen holder. The heater was powered and controlled by an Anton Paar TCU 100 interfaced with Data Collector. Approximately 200 mg sample used for VH-XRD analysis.
The compound of present invention was exposed to various humidity conditions. The sample, i.e., compound of formula (I) fumarate, was exposed from 40% RH to 85% RH followed by desorption cycle from 85% to 40% RH. The samples were equilibrated for 1 hr at each RH level (both sorption and desorption). […] See, FIG. 6B.

[4] = 6-month storage stability of solid form (XRPD, particle morphology); conditions: 6 months
[5] = Dynamic vapor sorption (DVS) moisture uptake study; conditions: at 90% RH, 25° C.
Description: The moisture uptake study of compound of present invention was performed with a DVS instrument (Q5000SA, TA instruments, New Castle, Delaware, USA) at 25° C. to evaluate the physical stability of compound of present invention against moisture or tendency to adsorb moisture. The instrument consisted of a microbalance housed inside a temperature-controlled chamber. The humidity was controlled via switching valves, which control the flow of a dry gas (nitrogen) through a humidification stage. Instrument was programmed for moisture sorption from 40 to 90% RH in 10% RH steps at 25±0.1° C. using an equilibrium condition. The equilibrium condition was set to <0.01% total mass change within 10 min and with a maximum dwell time of 60 min followed by desorption from 90% RH to 10% RH steps. The equilibrium condition for desorption was set to <0.01% total mass change within 10 min and with a maximum dwell time of 60 min.

[6] = pH 4.5 Acetate buffer USP, 37° C.
[7] = pH 5.8 Phosphate buffer USP, 37° C.
[8] = pH 6.8 Phosphate buffer USP, 37° C.

physical stability at different temperature conditions (VT-XRD) [1] | Solubility (mg/ml) ± SD ([2]; Purified water, 25° C.) [mg/mL] | Solubility (mg/ml) ± SD ([2]; pH 2.8 Acid Phthalate buffer USP, 37° C.) [mg/mL] | Solubility (mg/ml) ± SD [2, 6] [mg/mL] | Solubility (mg/ml) ± SD [2, 7] [mg/mL] | Solubility (mg/ml) ± SD [2, 8] [mg/mL] | physical stability at different relative humidity conditions (VH-XRD) [3] | solid form and particle morphology after storage ([4]; 25° C./60% RH) | solid form and particle morphology after storage ([4]; 40° C./75% RH) | weight/moisture gained (DVS) [5] | solubility at 24 h ([2]; pH 2.8 acid phthalate buffer USP, 37 °C, pH 2.8, aqueous buffer, thermodynamic from solid, pH 2.8 Acid Phthalate buffer USP, 37° C., read-out: Solubility (mg/ml) ± SD) [mg/mL] | Structure (SMILES)
physically stable | 0.280 ± 0.004 | 0.114 ± 0.017 | 0.171 ± 0.001 | 0.014 ± 0.004 | 0.014 ± 0.009 | remained physically stable | remained unchanged | remained unchanged | About 0.646 % w/w | – | CC(C)[C@H](C(=O)Nc1cc(C2CC2)[nH]n1)c1cccc(-c2ccc(NC(=O)/C=C/CN3CCOCC3)nc2)c1 [Formula (I) fumarate]
– | 0.0013 ± 0.0001 | – | 0.07 ± 0.004 | 0.002 ± 0.0001 | 0.0005 ± 0.0002 | – | – | – | – | 0.065 ± 0.004 | CC(C)[C@H](C(=O)Nc1cc(C2CC2)[nH]n1)c1cccc(-c2ccc(NC(=O)/C=C/CN3CCOCC3)nc2)c1 [Formula (I) free base, (S, E)-N-(5-(3-(1-((5-cyclopropyl-1H-pyrazol-3-yl)amino)-3-methyl-1-oxobutan-2-yl)phenyl)pyridin-2-yl)-4-morpholinobut-2-enamide]
